“Also recorded” adds a separate entry of the source.
Legend:
[1] = tested on: ovalbumin-induced murine model of asthma; experiment: Inflammatory cell counts in BAL fluid in OVA asthma model; type: in vivo, BALB/c mice
Procedure: (§1) All experimental procedures were carried out in accordance with the NIH Guidelines for the Care and Use of Laboratory Animals. Specific pathogen-free (SPF) male BALB/c mice (6-7 weeks of age, 18-22 grams), routinely screened serologically for relevant respiratory pathogens, were maintained in an animal housing facility for 1 week before use and given access to food and water ad libitum. Animals were randomly assigned to the indicated experimental groups, and sensitized with two intraperitoneal (IP) injections (20 μg ovalbumin (OVA) emulsified in 2 mg aluminum hydroxide (an adjuvant) in 200 μl phosphate buffer saline (PBS), pH 7.4), on days 1 and 10.
(§2) After another week, the animals were challenged by exposure to ovalbumin (OVA) aerosol (1%, w/v, in PBS) for 30 minutes each day on days 17, 18 and 19, in order to elicit an inflammatory reaction in the lungs characterized by airway hyper-responsiveness (AHR), an influx of inflammatory cells (particularly eosinophils), and increased pulmonary levels of various cytokines and transforming growth factors, protein nitration and lipid peroxidation.
The features of allergic inflammation typically reached their peak a day or two after the final exposure. Mice were then subjected to one of the following treatments: (i) sham-sensitization plus challenge with PBS; (ii) positive control-sensitization plus challenge with OVA; (iii) sensitization plus challenge with OVA and various indicated treatments (e.g., with nitroxide or dexamethasone), including different modes (oral, IP, intranasal, inhalation), time windows (sensitization stage, challenge stage, both stages and after the last challenge), and doses of nitroxide administration.
(§3) Bronchoalveolar lavage (BAL) fluid (also referred to herein as “BALf”) and bronchial submucosal inflammation are characteristic features of asthma. Mice were euthanized with an overdose of 50 mg/kg pentobarbital and ice-cold phosphate buffer saline (PBS) (0.6 ml) was instilled into the lungs. BAL fluid was obtained by three aspirations via tracheal cannulation, centrifuged, and the supernatant collected and stored at −70° C. Cell pellets were re-suspended in PBS and 100 μl aliquots placed onto slides and centrifuged (200 g, 4° C., 10 minutes) in a cytospin machine. Induction of oxidative stress was evaluated using a 2′,7′-dichlorofluorescein fluorescence assay, and total IgE, IgG2a, panel of cytokines, transforming growth factors, collagen, protein nitration and lipid peroxidation were measured using commercial kits according to the manufacturer's recommendations. A Sircol™ collagen assay kit was obtained from Biocolor Life Sciences Assays, a protein nitration assay kit was obtained from Abcam, and other assay kits were obtained from PeproTech Asia.
Control and experimental groups contained 10 mice each. The effects of the nitroxides were investigated by feeding the mice ad libitum a diet of nitroxide-containing chow (1 weight percent) during both ovalbumin (OVA)-induced sensitization and challenging periods (days −2-19), during the sensitization period (days −2-11) or challenge period (days 13-19). Nitroxide-containing chow were prepared by dissolving 500 grams chow in a minimum volume of water containing 5 grams nitroxide and 5 grams commercial chicken soup powder, preparing the chow and drying it at 37° C. (animals were reluctant to eat nitroxide-containing chow until chicken soup powder was added).
3-CP was also administered using 3 daily intraperitoneal (IP) injections (200 μl, 0.15 M, ˜300 mg/kg) 0.5 hour prior to the challenge with OVA aerosol, or by nasal instillation (50 μl, 0.3 M, ˜150 mg/kg) twice a day 0.5 hour prior to the challenge with OVA aerosol and 6 hours later without exceeding its maximally tolerated dose, which has been previously established to be 300-500 mg/kg. Both 3-CP and TPL were non-toxic when administered orally or via IP injection to untreated OVA-challenged mice for 22 days. […]

IL-13 = IL-13 level in OVA asthma model; type: in vivo, BALB/c mice; settings: for IL-13 level: lung tissue (table title)
Procedure: as §1, §2, §3
(§4) The efficacy of oral administration of 3-CP (1 weight percent in chow) during the sensitization period and/or challenge period was then compared to IP injection (˜300 mg/kg, 0.5 hour before the OVA challenge) or intranasal instillation (˜150 mg/kg, 0.5 hour before the OVA and 6 hours later) of 3-CP, as well as to dexamethasone treatment (1 mg/kg, 3 daily IP injections, 0.5 hour prior to the challenge with OVA aerosol).
(§5) In order to assess the effect of 3-CP on inflammatory signaling pathways, […] to procedures described hereinabove, upon oral, intranasal or IP administration of 3-CP.

IL-4 = IL-4 level in OVA asthma model; type: in vivo, BALB/c mice
Procedure: as §1, §2, §3, §4, §5

TGF-β1 = TGF-β1 level in OVA asthma model; type: in vivo, BALB/c mice
Procedure: as §1, §2, §3, §4, §5

mucin production = experiment: Mucin production by PAS staining of lung tissue, OVA asthma model; type: in vivo, mice
Procedure: Following aspiration of BAL as described hereinabove, a thoracotomy was performed, and the right main bronchus was tied. The left lung was fixed by means of intrabronchial infusion with 1 ml of 4% formaldehyde, and then immersed in fixative (10% (v/v) neutral buffered formalin) for 24 hours at 4° C. Transverse sections of the left lung were embedded in paraffin, and […] sections were stained with hematoxylin and eosin (H&E) by Hadassah Hospital Pathology Service (Jerusalem, Israel). In addition, periodic acid-Schiff (PAS) staining was performed on lung tissue, and the degree of mucin production was measured from PAS staining.
In order to evaluate the effect of 3-CP on lung pathology, animals in an ovalbumin-induced asthma model were treated with 3-CP, and killed by abdominal aortic transaction and exsanguination, according to procedures described hereinabove. Lung tissue was examined by hematoxylin and eosin (H&E) staining, the degree of mucin production was determined from periodic-acid-Schiff (PAS) staining.

[2] = tested on: bleomycin-induced pulmonary fibrosis; experiment: Collagen content in lung tissue, bleomycin pulmonary fibrosis model; type: in vivo, mice; settings: 3-CP 150 mg/kg daily intranasal, 14 days, FIG. 20
Procedure: Bronchoalveolar lavage (BAL) fluid (also referred to herein as “BALf”) and bronchial submucosal inflammation are characteristic features of asthma. Mice were euthanized with an overdose of 50 mg/kg pentobarbital and ice-cold phosphate buffer saline (PBS) (0.6 ml) was instilled into the lungs. BAL fluid was obtained by three aspirations via tracheal cannulation, centrifuged, and the supernatant collected and stored at −70° C. Cell pellets were re-suspended in PBS and 100 μl aliquots placed onto slides and centrifuged (200 g, 4° C., 10 minutes) in a cytospin machine. Induction of oxidative stress was evaluated using a 2′,7′-dichlorofluorescein fluorescence assay, and total IgE, IgG2a, panel of cytokines, transforming growth factors, collagen, protein nitration and lipid peroxidation were measured using commercial kits according to the manufacturer's recommendations. A Sircol™ collagen assay kit was obtained from Biocolor Life Sciences Assays, a protein nitration assay kit was obtained from Abcam, and other assay kits were obtained from PeproTech Asia. […]
The degree of fibrosis was evaluated by measuring collagen content in lung tissue.

[3] = oral, 1 weight percent in chow, FIG. 4
[4] = OVA IP-C: 3-CP intraperitoneal during challenge
[5] = OVA oral-C: 3-CP oral during challenge
[6] = OVA oral-S&C: 3-CP oral during sensitization and challenge
[7] = OVA oral-S: 3-CP oral during sensitization
[8] = oral administration vs IP injection

With CC1(C)CC(C(N)=O)C(C)(C)N1[O] (stereo not drawn) [3-CP, 3-Carbamoyl-2,2,5,5-tetramethyl-pyrrolidin-1-oxyl] the “levels of inflammatory cells, oral 3-CP in both periods compared with other regimens” value ([1]; oral 1 weight percent in chow during sensitization and challenge periods, FIG. 5) was “more effective than IP injection or intranasal instillation of 3-CP, oral administration of 3-CP during the sensitization period or challenge period alone, or treatment with dexamethasone; also recorded: more effective than treatment with dexamethasone”, the “BAL inflammatory cell/eosinophil count attenuation, 3-CP compared with TPL” value [1, 3] was “considerably more effective than TPL” and the “effect on OVA-induced increase in total inflammatory cell and eosinophil counts in BAL fluid” value [1, 3] was “attenuated the increase in total inflammatory cell counts and eosinophil counts”. For the same compound, the “reducing IL-13 level, oral 3-CP compared with intranasal 3-CP and IP dexamethasone” value (IL-13; FIG. 7D and Table 1) was “more effective than intranasal instillation of 3-CP and IP injection of dexamethasone”, the IL-13 level (IL-13; OVA IN-C: 3-CP intranasal during challenge) was 1.99 ng/mg and the IL-13 level (IL-13; [4]) was 1.38 ng/mg. It also gave an IL-13 level (IL-13; [5]) of 2.01 ng/mg, an IL-13 level (IL-13; [6]) of 1.67 ng/mg and an IL-13 level (IL-13; [7]) of 2.20 ng/mg. The “effect on OVA-induced increase in the level of IL-13” value (IL-13; lung tissue, FIG. 7D and Table 1) was “inhibited”, the “modulating IL-13 level, oral compared with IP 3-CP” value (IL-13; [8]) was “consistently more effective than IP injection of 3-CP” and the “effect on OVA-induced increase in the level of IL-4” value (IL-4; FIG. 7A and Table 1) was “inhibited”. It also gave an IL-4 level (IL-4; [4]) of 1.70 ng/mg, an IL-4 level (IL-4; [5]) of 2.03 ng/mg and an IL-4 level (IL-4; [6]) of 1.65 ng/mg. For the same compound, the IL-4 level (IL-4; [7]) was 2.44 ng/mg, the “modulating IL-4 level, oral compared with IP 3-CP” value (IL-4; [8]) was “consistently more effective than IP injection of 3-CP” and the “effect on OVA-induced increase in the level of TGF-β1” value (TGF-β1; FIG. 7E and Table 1) was “inhibited”. The “reducing TGF-β1 level, oral 3-CP compared with intranasal 3-CP and IP dexamethasone” value (TGF-β1; FIG. 7E and Table 1) was “more effective than intranasal instillation of 3-CP and IP injection of dexamethasone”, the TGF-β1 level (TGF-β1; [4]) was 0.88 ± 0.05 ng/mg and the TGF-β1 level (TGF-β1; [5]) was 0.72 ± 0.08 ng/mg. For the same compound, the TGF-β1 level (TGF-β1; [6]) was 0.73 ± 0.07 ng/mg, the TGF-β1 level (TGF-β1; [7]) was 0.76 ± 0.02 ng/mg and the “modulating TGF-β1 level, oral compared with IP 3-CP” value (TGF-β1; [8]) was “consistently more effective than IP injection of 3-CP”. The “effect on mucin levels, PAS scoring” value (mucin production; 3-CP via all tested modes of delivery, FIGS. 10 and 11) was “reduced the mucin levels”, the “reducing mucin levels, 3-CP compared with dexamethasone” value (mucin production; FIG. 10) was “at least as effective as dexamethasone” and the “effect on bleomycin-induced pulmonary fibrosis, pulmonary collagen content” value [2] was “significantly inhibited”.

From patent publication US10441568B2, “Nitroxide radicals for the treatment of diseases of the respiratory tract” (priority 2015, dated 2019)
